# Reference: ChEMBL document CHEMBL3751750, “2-Amino-4-bis(aryloxybenzyl)aminobutanoic acids: A novel scaffold for inhibition of ASCT2-mediated glutamine transport” (Bioorg Med Chem Lett, 2016)
# How the values were obtained:
# Amino acid transporter = biological target: T1, Amino acid transporter (Rattus norvegicus, UniProt Q9Z1J7); assay: Inhibition of ASCT2-mediated glutamine transport in rat C6 cells using [3H]-glutamine after 15 mins by scintillation counting; format: cell-based
# T1 sequence (Q9Z1J7 whole entry): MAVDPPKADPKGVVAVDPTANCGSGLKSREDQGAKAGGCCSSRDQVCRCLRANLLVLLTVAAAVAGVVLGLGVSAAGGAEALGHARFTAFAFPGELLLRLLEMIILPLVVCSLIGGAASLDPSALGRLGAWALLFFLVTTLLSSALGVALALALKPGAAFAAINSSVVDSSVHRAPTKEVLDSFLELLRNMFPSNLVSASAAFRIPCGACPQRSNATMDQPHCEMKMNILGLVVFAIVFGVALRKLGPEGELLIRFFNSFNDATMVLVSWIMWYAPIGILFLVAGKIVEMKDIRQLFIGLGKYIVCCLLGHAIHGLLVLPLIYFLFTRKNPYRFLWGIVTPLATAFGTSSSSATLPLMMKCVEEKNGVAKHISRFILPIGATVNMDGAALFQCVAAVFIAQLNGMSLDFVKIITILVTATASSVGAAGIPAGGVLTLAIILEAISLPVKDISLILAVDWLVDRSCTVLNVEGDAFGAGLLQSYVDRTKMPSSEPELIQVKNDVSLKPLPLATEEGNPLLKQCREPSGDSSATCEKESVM
# [1] = biological target: T2, Neutral amino acid transporter B(0) (Homo sapiens, UniProt Q15758); assay: Inhibition of ASCT2-mediated glutamine transport in human HEK293 cells using [3H]-glutamine after 15 mins by scintillation counting; format: cell-based
# T2 sequence (Q15758 whole entry): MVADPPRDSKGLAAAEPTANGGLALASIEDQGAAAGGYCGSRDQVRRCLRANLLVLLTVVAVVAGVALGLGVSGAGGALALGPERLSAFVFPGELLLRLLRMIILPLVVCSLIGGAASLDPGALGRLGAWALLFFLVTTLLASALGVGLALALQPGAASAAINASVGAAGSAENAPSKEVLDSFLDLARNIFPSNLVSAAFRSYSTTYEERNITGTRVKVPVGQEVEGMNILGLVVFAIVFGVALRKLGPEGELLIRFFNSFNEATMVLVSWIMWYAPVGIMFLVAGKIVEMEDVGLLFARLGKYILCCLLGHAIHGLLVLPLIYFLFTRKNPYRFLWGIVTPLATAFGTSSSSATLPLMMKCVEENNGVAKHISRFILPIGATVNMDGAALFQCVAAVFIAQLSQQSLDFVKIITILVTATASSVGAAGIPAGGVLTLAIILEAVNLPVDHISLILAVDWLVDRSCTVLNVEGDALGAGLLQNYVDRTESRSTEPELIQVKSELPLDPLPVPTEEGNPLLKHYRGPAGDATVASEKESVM
# [2] = biological target: T2, Neutral amino acid transporter B(0); assay: Inhibition of ASCT2 (unknown origin)-mediated glutamine transport
IC50 (Amino acid transporter),IC50 [1],IC50 [2],SMILES
41.7 µM,25.6 µM,–,Cc1ccccc1COc1ccccc1CN(CC[C@H](N)C(=O)O)Cc1ccccc1OCc1ccccc1C
17.3 µM,69.1 µM,–,N[C@@H](CCN(Cc1ccccc1OCc1cccnc1)Cc1ccccc1OCc1cccnc1)C(=O)O
–,–,3.7 µM,N#Cc1cc(Br)ccc1/N=c1\ssnc1Cl
8.4 µM,48.3 µM,–,N[C@@H](CCN(Cc1ccccc1OCc1ccccn1)Cc1ccccc1OCc1ccccn1)C(=O)O
8.7 µM,11.9 µM,–,COc1ccc(Oc2ccccc2CN(CC[C@H](N)C(=O)O)Cc2ccccc2Oc2ccc(OC)cc2)cc1
–,–,30 µM,N[C@@H](COC(=O)c1ccc(-c2ccccc2)cc1)C(=O)O
–,1200 µM,1000 µM,N[C@@H](CCC(=O)Nc1ccc([N+](=O)[O-])cc1)C(=O)O
3.3 µM,–,–,N[C@@H](CCN(Cc1ccccc1OCc1ccccc1F)Cc1ccccc1OCc1ccccc1F)C(=O)O
1.8 µM,33.8 µM,–,N[C@@H](CCN(Cc1ccccc1Oc1ccccc1F)Cc1ccccc1Oc1ccccc1F)C(=O)O
18.4 µM,40.1 µM,–,N[C@@H](CCN(Cc1ccccc1OCc1ccccc1Cl)Cc1ccccc1OCc1ccccc1Cl)C(=O)O
–,26 µM,–,N[C@@H](CCN(Cc1ccccc1Oc1ccc(Cl)cc1)Cc1ccccc1Oc1ccc(Cl)cc1)C(=O)O
20.1 µM,33.7 µM,–,N[C@@H](CCN(Cc1ccccc1OCc1ccc(Cl)cc1)Cc1ccccc1OCc1ccc(Cl)cc1)C(=O)O
12.7 µM,50.8 µM,–,N[C@@H](CCN(Cc1ccccc1OCc1cccc(Cl)c1)Cc1ccccc1OCc1cccc(Cl)c1)C(=O)O
5.1 µM,7.2 µM,–,COc1cccc(COc2ccccc2CN(CC[C@H](N)C(=O)O)Cc2ccccc2OCc2cccc(OC)c2)c1
10.5 µM,142 µM,–,N[C@@H](CCN(Cc1ccccc1Oc1ccc(F)cc1)Cc1ccccc1Oc1ccc(F)cc1)C(=O)O

SMILES,IC50 (Amino acid transporter),IC50 [1],IC50 [2]
N[C@@H](CCN(Cc1ccccc1Oc1ccccn1)Cc1ccccc1Oc1ccccn1)C(=O)O,68.2 µM,59.6 µM,–
N[C@@H](CCN(Cc1ccccc1OCc1ccc(F)cc1)Cc1ccccc1OCc1ccc(F)cc1)C(=O)O,11.2 µM,–,–
N[C@@H](CCN(Cc1ccccc1Oc1cccc(F)c1)Cc1ccccc1Oc1cccc(F)c1)C(=O)O,36.3 µM,–,–
COc1cccc(Oc2ccccc2CN(CC[C@H](N)C(=O)O)Cc2ccccc2Oc2cccc(OC)c2)c1,1.3 µM,57.2 µM,–
Cc1ccc(COc2ccccc2CN(CC[C@H](N)C(=O)O)Cc2ccccc2OCc2ccc(C)cc2)cc1,86.4 µM,17.5 µM,–
